# Columns and labels:
# [1] = test system: HPV16 E7 protein in CaSki cells; assay: HPV16 E7 protein level by western blotting in treated CaSki cells; assay type: cell-based; conditions: for E7 protein level after inhibitor treatment: 24-hr treatment
# Description: FIG. 1A. The representative immunoblots showing the level of HPV16 E7 constitutively expressed in CaSki cells upon treatment with inhibitors specific for USP7 (P5091, FT671, GNE-6776 and HBX 19818) and that targeting pan-USPs (PR-619) at the indicated concentrations. DMSO served as a vehicle control treatment. Cells were then collected and lysed, the levels of USP7 and HPV16 E7 proteins were detected using the respective specific antibodies. Beta-actin (β-actin) was included as a loading control. KDa: kilodalton. FIG. 1B. The bar chart showing the relative protein level of HPV16 E7 normalized by β-actin (n=3). Data are expressed as mean±standard error of the mean (SEM); Right panel showing the images at 100× magnification of the morphology of the CaSki cells treated with P5091, FT671, GNE-6776, HBX 19818 and PR-619 at concentrations indicated. FIG. 1C. The immunoblots showing the levels of USP7 and HPV16 E7 proteins in CaSki and C-33A (an HPV-null cervical cancer cell line) upon downregulation of USP7 using siRNA targeting specifically against human USP7. FIG. 1D. The immunoblots showing the protein level of HPV16 E7 treated with different concentrations of HBX 19818. CaSki cells were treated with different concentrations of HBX 19818 or DMSO as indicated. Total cell lysates were subjected to western blotting using USP7, β-actin and HPV16 E7 specific antibodies. FIG. 1E. The bar chart showing the relative protein level of HPV16 E7 treated with different concentrations of HBX 19818 normalized by β-actin (n=3). Data are expressed as mean±SEM. FIG. 1F. The curve chart showing the level of E7 protein with increasing concentrations of HBX 19818 treatment. The percentage of HPV16 E7 protein level was analyzed using the non-linear regression function in GraphPad™ Prism 9. Error bars show standard errors of the mean (SEM). *: P<0.05; […]***: P<0.001.
# Firstly, we screened four USP7-specific inhibitors (P5091, FT671. GNE-6776, and HBX 19818) and 1 pan-USPs inhibitor (PR-619) to characterize their inhibitory effect on E7 expression in HPV-containing cancer cells. We treated CaSki (HPV16-positive) cancer cells with P5091 at 5 μM and 10 μM; FT671, GNE-6776 and PR-619 at 3 μM and 15 μM; as well as HBX 19818 at 3 μM and 6 μM. These concentrations were chosen based on the reported IC50 values. After 24-hr treatment, the cells were collected, and total cell lysates were resolved by SDS-PAGE. The expression levels of USP7 and E7 were detected using respective specific antibodies.
# [2] = test system: HPV16 E7 protein in CaSki cells; assay: Cycloheximide chase assay of E7 stability in CaSki cells; assay type: cell-based; conditions: 3 μM for 24 hrs, then 10 μg/ml cycloheximide, E7 alone 40.32±0.94 mins
# Method: (§1) FIGS. 2A-2C HBX 19818 treatment destabilized the steady-state level of HPV16 E7. FIG. 2A. Immunoblots showing the protein levels of HPV16 E7, endogenous ubiquitin and USP7. CaSki cells were either transfected with expression plasmids pcDNA 3.1 (left panel) or pcDNA:Flag-USP7, treated with 3 μM of HBX 19818. After 24 hr, the cells were treated with 10 μg/ml cycloheximide at different durations, as indicated. As a control, the cells were also treated with 5 μg/ml MG132 (a proteasome inhibitor) for 2 hrs prior to adding cycloheximide. The cells were harvested and subjected to western blotting using the respective specific antibodies as indicated. Beta-actin (β-actin) was included as a loading control. CHX: cycloheximide; KDa: kilodalton. FIG. 2B. The curves showing the level of HPV16 E7 protein when co-overexpressed with USP7 or treated with HBX 19818 at different time points. The stability of HPV16 E7 was analyzed using the one-phase exponential decay function in GraphPad™ Prism 9. Error bars indicate standard error of the mean (SEM). FIG. 2C. […] Data are expressed as mean±SEM. ns: not significant, P>0.05; *: P<0.05.
# (§2) We next wanted to assess whether HBX 19818 can reverse USP7-mediated deubiquitination of E7. […] The expression levels of Flag-USP7, endogenous ubiquitin, and E7 were detected using anti-Flag-, ubiquitin- and HPV16 E7-specific antibodies, respectively (FIG. 2A). […]
# ubiquitin in CaSki cells = assay: Endogenous ubiquitin level by western blotting in CaSki cells; assay type: cell-based, human; conditions: 3 μM, independent of cycloheximide
# Method: as §1, §2
# [3] = test system: CaSki (HPV16-positive) cancer cells; assay: Cell proliferation, cell counting kit-8 (CCK8) assay, CaSki; assay type: cell-based, human; conditions: DMSO 10.38±0.90 folds
# Method: (§3) FIGS. 3A-3B HBX 19818 inhibited proliferation of CaSki cells, but not SCC25 cells. The growth curves showing the cell proliferation of (FIG. 3A) CaSki (HPV16-positive) and (FIG. 3B) SCC25 (HPV-negative) cancer cells in the presence or absence of HBX 19818. Cell proliferation of CaSki was assessed using cell counting kit 8 (CCK8) assay. Cells were seeded into 96-well plates and incubated with either DMSO (vehicle control) or HBX 19818 at 3 μM or 6 μM for different days as indicated. Optical density (OD) value at 450 nm indicating relative proliferation was measured daily (n=3). Error bars indicate standard error of the mean (SEM).
# (§4) We assessed the ability of CaSki (HPV16 positive cells) and SCC25, which are HPV-null cells, to proliferate using a cell counting kit-8 (CCK8) assay. This assay measures the ability of viable cells to metabolize soluble tetrazolium salt (WST-8) to orange formazan, in which the latter can be measured at optical density (OD) of […]. A day prior to drug treatment, CaSki and SCC25 were seeded into each well of 96-well plates at a density of 2000 cells/well in 100 μL of DMEM containing 10% FBS. The cells were treated with either DMSO (vehicle control) or HBX 19818 at 3 μM and 6 μM for 24, 72, and 96 hrs. […] The OD value of the medium at 450 nm was measured using LEDETECT 96 microplate reader (Labexim Products).
# [4] = test system: SCC25 (HPV-negative) cancer cells; assay: Cell proliferation, cell counting kit-8 (CCK8) assay, SCC25; assay type: cell-based, human; conditions: DMSO 10.45±0.88 folds
# Method: as §3, §4
# [5] = test system: CaSki (HPV16-positive) cancer cells; assay: Soft agar colony formation assay, CaSki; assay type: cell-based, human; conditions: 14 days, DMSO 88.17±5.92
# Method: (§5) FIGS. 4A-4D HBX 19818 inhibited transformation of CaSki cells, but not SCC25 cells. The representative images showing the whole-well view and morphology of colonies formed by (FIG. 4A) CaSki (HPV16-positive) and (FIG. 4C) SCC25 (HPV-negative) cancer cells. Cells were seeded into 0.35% agarose gel containing DMEM with 10% FBS, and grew for 14 days. The agarose gel was stained with crystal violet, and images were taken using a digital camera. The colony morphology was observed using an optical microscope at 100× magnification. The bar chart comparing the number of colonies of (FIG. 4B) CaSki or (FIG. 4D) SCC25 cells with DMSO or HBX 19818 at concentrations indicated (n=3). Data indicated are mean±standard error of the mean (SEM). *: P<0.05.
# (§6) We performed a soft agar colony formation assay to assess the ability of CaSki and SCC25 to grow in an anchorage-independent manner, in the presence or absence of HBX 19818 treatment. CaSki and SCC25 cells were seeded into 0.7% soft agar containing 2×DMEM and 20% FBS. The cells were incubated at 37° C. for 14 days. After a 2-week incubation, the agarose gel was stained with crystal violet. Colonies formed were counted and measured. We observed that CaSki cells treated with DMSO formed a dramatically higher number of colonies (88.17±5.92) than those treated with 6 μM of HBX 19818 (62.67±2.03) (FIGS. 4A and 4B). […]
# [6] = test system: SCC25 (HPV-negative) cancer cells; assay: Soft agar colony formation assay, SCC25; assay type: cell-based, human; conditions: SCC25, HBX 19818 versus DMSO, 14 days
# Method: as §5, §6
# [7] = test system: CaSki (HPV16-positive) cancer cells; assay: Wound-healing (migration) assay, CaSki; assay type: cell-based, human; conditions: 24 hrs, DMSO 98.46%±0.36%
# Method: (§7) The representative images showing the cell migration of (FIG. 5A) CaSki (HPV16-positive) and (FIG. 5C) SCC25 (HPV-negative) cancer cells after scratching. Cells were seeded into 12-well plate and scratched when reached 100% confluence, followed by incubation with DMSO (vehicle control) or HBX 19818 at concentrations indicated for 24 hours. Cell migration was observed and recorded using a time-lapse microscope every 6 hours. The bar chart comparing the relative coverage areas of (FIG. 5B) CaSki and (FIG. 5D) SCC25 with DMSO or HBX 19818 (n=3). Data indicated are mean±SEM. *: P<0.05; **: P<0.01.
# (§8) We performed a wound-healing assay to ascertain the ability of CaSki and SCC25 cells to migrate under HBX 19818 treatment. Cells were seeded into a 12-well plate and cultured to reach 100% confluency. Cells were then scratched to make artificial wounds on the monolayer of cells and incubated with either DMSO or HBX 19818 at 3 μM or 6 μM. Cells migration was monitored using time-lapse microscopy where images were taken 6-hourly for a duration of 24 hrs.
# [8] = test system: SCC25 (HPV-negative) cancer cells; assay: Wound-healing (migration) assay, SCC25; assay type: cell-based, human; conditions: SCC25, HBX 19818 versus DMSO, 24 hrs
# Method: as §7, §8
# [9] = test system: CaSki (HPV-positive) cancer cells; assay: Matrigel invasion assay, CaSki; assay type: cell-based, human; conditions: 24-hr, DMSO 100%
# Method: (§9) FIGS. 6A-6D. […] The representative images showing the cell invasion of (FIG. 6A) CaSki (HPV-positive) and (FIG. 6C) SCC25 (HPV-negative) cancer cells in the presence of DMSO (vehicle control) or HBX 19818 at concentrations indicated. Cells were seeded into the invasion chamber with plain medium, followed by treatment with either DMSO or HBX 19818 for 24 hours. Cell invasion was observed and recorded using an optical microscope at 40× magnification. The bar graph comparing the relative cell invasion ability of (FIG. 6B) CaSki and (FIG. 6D) SCC25 with DMSO or HBX 19818 (n=3). Data indicated are mean±standard error of the mean (SEM). **: P<0.01; ***: P<0.001.
# (§10) We next examined the ability of CaSki and SCC25 cells to invade through Matrigel, which mimics the basement membrane. Approximately 5×10^4 of CaSki and SCC25 cells were seeded into the inserts containing serum-free DMEM medium with either DMSO or HBX 19818. We included MCF7, a non-invasive breast cancer cell line as a negative control. DMEM supplemented with 20% FBS was added into the bottom chamber to attract cells to migrate from the upper to the lower surface of the inserts. After 24-hr incubation at 37° C., the non-invasive cells on the upper surface were removed using cotton swabs. Cells on the lower surface were fixed and stained using hematoxylin. […]
# [10] = test system: SCC25 (HPV-negative) cancer cells; assay: Matrigel invasion assay, SCC25; assay type: cell-based, human; conditions: SCC25, HBX 19818 versus DMSO, 24-hr
# Method: as §9, §10
Molecule,"Level of E7 with increasing concentration ([1]; 1.5 μM, 3.0 μM, 6.0 μM and 12.0 μM)","E7 protein level after inhibitor treatment ([1]; 3 μM and 6 μM, triplicate experiments)","IC50 ([1]; non-linear regression, read-out: Concentration sufficient to halve the level of E7 protein) [nM]",Half-life of E7 [2] [min],Level of ubiquitin (ubiquitin in CaSki cells),Cell proliferation ability (relative OD 450 nm) ([3]; 3 μM) [folds],Cell proliferation ability (relative OD 450 nm) ([3]; 6 μM) [folds],"Cell proliferation ability (relative OD 450 nm) ([4]; SCC25, 3 μM) [folds]","Cell proliferation ability (relative OD 450 nm) ([4]; SCC25, 6 μM) [folds]",Number of colonies ([5]; 3 μM),Number of colonies ([5]; 6 μM),Number of colonies [6],Cell migration ability (relative coverage area) ([7]; 3 μM),Cell migration ability (relative coverage area) ([7]; 6 μM),Cell migration ability [8],Relative invasive ability ([9]; 3 μM),Relative invasive ability ([9]; 6 μM),Invasive ability [10],E7 protein level after inhibitor treatment ([1]; 15 μM)
HBX 19818,decreased at a dose-dependent manner,dramatic reduction of E7 protein level,2800,27.45 ± 0.88,increased level of ubiquitin,7.82±1.14,4.29±0.31,10.12±0.94,7.29±1.24,74.67±7.99,62.67±2.03,no difference in the number of colonies,85.58%±4.39%,53.24%±8.96%,no differences were observed,30%±2.97%,13.85%±1.21%,similar,–
CCc1c(-c2ccc(C(=O)NC)nc2)cnc(N)c1-c1ccc(O)cc1 [GNE-6776],–,–,–,–,–,–,–,–,–,–,–,–,–,–,–,–,–,–,decreased the E7 protein level drastically

# Source: patent publication US20240009182A1, “REPURPOSED COMPOUND AS THERAPEUTIC FOR HPV-ASSOCIATED CANCERS” (The Chinese University of Hong Kong, priority 2022, published 2024)
